Measured values reported in patent US20240384350A1, “METHODS OF TREATING CANCER WITH KINASE INHIBITORS” (BOARD OF REGENTS, THE UNIVERSITY OF TEXAS SYSTEM, priority 2021, published 2024).

Experiments:
Assay in all cases: Ba/F3 drug screening, Cell Titer Glo, IC50 Mut/WT
Assay type in all cases: cell-based
EGFR S768I/V769L = target: T1, EGFR S768I/V769L (Homo sapiens, UniProt P00533, S768I/V769L); details: Ba/F3 cells, EGFR S768I/V769L (PACC), Mut/WT
T1 construct: host or cells: Ba/F3

EGFR Ex19del G724S = target: T2, EGFR Ex19del G724S (Homo sapiens, UniProt P00533, DEL746-750/G724S); details: Ba/F3 cells, EGFR Ex19del G724S (PACC), Mut/WT
T2 construct: expressed in transfected cells; host or cells: Ba/F3

EGFR L858R/L718V = target: T3, EGFR L858R/L718V (Homo sapiens, UniProt P00533, L718V/L858R); details: Ba/F3 cells, EGFR L858R/L718V (PACC), Mut/WT
T3 construct: host or cells: Ba/F3

EGFR E709K = target: T4, EGFR E709K (Homo sapiens, UniProt P00533, E709K); details: Ba/F3 cells, EGFR E709K (PACC), Mut/WT
T4 construct: expressed in transfected cells; host or cells: Ba/F3

EGFR S768dupSVD = target: T5, EGFR S768dupSVD (Homo sapiens, UniProt P00533, DUP768-770); details: Ex20, 72 hours
T5 construct: expressed in transfected cells; host or cells: Ba/F3 cells, retroviral pBabe-Puro vector

EGFR S768I V774M = target: T6, EGFR S768I V774M (Homo sapiens, UniProt P00533, S768I/V774M); details: Ba/F3 cells, EGFR S768I V774M (PACC), Mut/WT
T6 construct: host or cells: Ba/F3

EGFR L858R/C797S = target: T7, EGFR L858R/C797S (Homo sapiens, UniProt P00533, C797S/L858R); details: Ba/F3 cells, EGFR L858R/C797S (PACC), Mut/WT
T7 construct: expressed in transfected cells; host or cells: Ba/F3

EGFR L858R/V834L = target: T8, EGFR L858R/V834L (Homo sapiens, UniProt P00533, L858R/V834L); details: Classical-Like, 72 hours
T8 construct: expressed in transfected cells; host or cells: Ba/F3 cells, retroviral pBabe-Puro vector

EGFR Ex19del T854I = target: T9, EGFR Ex19del T854I (Homo sapiens, UniProt P00533, DEL746-750/T854I); details: Ba/F3 cells, EGFR Ex19del T854I (PACC), Mut/WT
T9 construct: expressed in transfected cells; host or cells: Ba/F3 (retroviral transduction, pBabe-Puro based vectors)

EGFR Ex19del/L792H = target: T10, EGFR Ex19del/L792H (Homo sapiens, UniProt P00533, DEL746-750/L792H); details: Ba/F3 cells, EGFR Ex19del/L792H (PACC), Mut/WT
T10 construct: expressed in transfected cells; host or cells: Ba/F3

EGFR Ex19del = target: T11, EGFR Ex19del (Homo sapiens, UniProt P00533, DEL746-750); details: Classical-Like, 72 hours
T11 construct: expressed in transfected cells; host or cells: Ba/F3 cells, retroviral pBabe-Puro vector

EGFR L858R/T790M/C797S = target: T12, EGFR L858R/T790M/C797S (Homo sapiens, UniProt P00533, C797S/L858R/T790M); details: T790M-like-3R, 72 hours
T12 construct: expressed in transfected cells; host or cells: Ba/F3

EGFR H773insNPH = target: T13, EGFR H773insNPH (Homo sapiens, UniProt P00533, INS773NPH); details: Ex20, 72 hours
T13 construct: expressed in transfected cells; host or cells: Ba/F3 cells, retroviral pBabe-Puro vector

EGFR D761N = target: T14, EGFR D761N (Homo sapiens, UniProt P00533, D761N); details: Classical-Like, 72 hours
T14 construct: expressed in transfected cells; host or cells: Ba/F3 cells, retroviral pBabe-Puro vector

EGFR K757R = target: T15, EGFR K757R (Homo sapiens, UniProt P00533, K757R); details: Ba/F3 cells, EGFR K757R (PACC), Mut/WT
T15 construct: expressed in transfected cells; host or cells: Ba/F3

EGFR L858R/L792H = target: T16, EGFR L858R/L792H (Homo sapiens, UniProt P00533, L792H/L858R); details: Ba/F3 cells, EGFR L858R/L792H (PACC), Mut/WT
T16 construct: expressed in transfected cells; host or cells: Ba/F3

EGFR L718Q T790M = target: T17, EGFR L718Q T790M (Homo sapiens, UniProt P00533, L718Q/T790M); details: T790M-like-3R, 72 hours
T17 construct: expressed in transfected cells; host or cells: Ba/F3

EGFR S784F = target: T18, EGFR S784F (Homo sapiens, UniProt P00533, S784F); details: Classical-Like, 72 hours
T18 construct: expressed in transfected cells; host or cells: Ba/F3 cells, retroviral pBabe-Puro vector (vector made by GeneScript from EGFR WT)

EGFR L858R = target: T19, EGFR L858R (Homo sapiens, UniProt P00533, L858R); details: Classical-Like, 72 hours
T19 construct: expressed in transfected cells; host or cells: Ba/F3 cells, retroviral pBabe-Puro vector

EGFR Ex19del T790M = target: T20, EGFR Ex19del T790M (Homo sapiens, UniProt P00533, DEL746-750/T790M); details: T790M-like-3S, 72 hours
T20 construct: expressed in transfected cells; host or cells: Ba/F3

EGFR E709A = target: T21, EGFR E709A (Homo sapiens, UniProt P00533, E709A); details: Ba/F3 cells, EGFR E709A (PACC), Mut/WT
T21 construct: expressed in transfected cells; host or cells: Ba/F3

EGFR Ex19del L718V = target: T22, EGFR Ex19del L718V (Homo sapiens, UniProt P00533, DEL746-750/L718V); details: Ba/F3 cells, EGFR Ex19del L718V (PACC), Mut/WT
T22 construct: expressed in transfected cells; host or cells: Ba/F3

EGFR Ex19del/T790M/L792H = target: T23, EGFR Ex19del/T790M/L792H (Homo sapiens, UniProt P00533, DEL746-750/L792H/T790M); details: T790M-like-3R, 72 hours
T23 construct: expressed in transfected cells; host or cells: Ba/F3

EGFR V774M = target: T24, EGFR V774M (Homo sapiens, UniProt P00533, V774M); details: Ba/F3 cells, EGFR V774M (PACC), Mut/WT
T24 construct: host or cells: Ba/F3

EGFR T725M = target: T25, EGFR T725M (Homo sapiens, UniProt P00533, T725M); details: Classical-Like, 72 hours
T25 construct: expressed in transfected cells; host or cells: Ba/F3 cells, retroviral pBabe-Puro vector (vector made by GeneScript from EGFR WT)

EGFR G719A/R776C = target: T26, EGFR G719A/R776C (Homo sapiens, UniProt P00533, G719A/R776C); details: Ba/F3 cells, EGFR G719A/R776C (PACC), Mut/WT
T26 construct: expressed in transfected cells; host or cells: Ba/F3

Which “ratio of the IC50 value for cells with a PACC EGFR mutation to the IC50 value for cells with wildtype EGFR” value (“ratio of the IC50 value for cells” for short) (EGFR S768I/V769L) does the source give for `C=CC(=O)N[C@H]1C=C(C)c2c(-c3cnc4ccccc4c3)c3c(N)ncnc3n2C1` [TAS 6417] here?
Its value is 0.004702.

What about the “ratio of the IC50 value for cells” value (EGFR Ex19del G724S) of the same compound?
Its value is 0.2809.

And the “ratio of the IC50 value for cells” value (EGFR L858R/L718V)?
The value was 0.01509.

And the “ratio of the IC50 value for cells” value (EGFR E709K)?
The value was 0.2516.

And the “ratio of IC50 for cells with mutant EGFR to IC50 for cells with wildtype EGFR (Mut/WT)” value (from here on “ratio of IC50 for cells with mutant EGFR”) (EGFR S768dupSVD)?
Its value is 0.05773.

What about the “ratio of the IC50 value for cells” value (EGFR S768I V774M) of the same compound?
The value was 0.3996.

What about the “ratio of the IC50 value for cells” value (EGFR L858R/C797S) of the same compound?
The value was 3.055.

And the “ratio of IC50 for cells with mutant EGFR” value (EGFR L858R/V834L)?
Its value is 0.0005227.

What about the “ratio of the IC50 value for cells” value (EGFR Ex19del T854I) of the same compound?
The value was 0.0152.

What about the “ratio of the IC50 value for cells” value (EGFR Ex19del/L792H) of the same compound?
Its value is 0.008269.

What about the “ratio of IC50 for cells with mutant EGFR” value (EGFR Ex19del) of the same compound?
Its value is 0.00149.

What about the “ratio of IC50 for cells with mutant EGFR” value (EGFR L858R/T790M/C797S) of the same compound?
The value was 4.897.

And the “ratio of IC50 for cells with mutant EGFR” value (EGFR H773insNPH)?
The value was 0.1843.

And the “ratio of IC50 for cells with mutant EGFR” value (EGFR D761N)?
Its value is 0.2474.

What about the “ratio of the IC50 value for cells” value (EGFR K757R) of the same compound?
The value was 0.4608.

And the “ratio of the IC50 value for cells” value (EGFR L858R/L792H)?
Its value is 0.004611.

And the “ratio of IC50 for cells with mutant EGFR” value (EGFR L718Q T790M)?
The value was 0.02624.

And the “ratio of IC50 for cells with mutant EGFR” value (EGFR S784F)?
The value was 0.01015.

What about the “ratio of IC50 for cells with mutant EGFR” value (EGFR L858R) of the same compound?
The value was 0.003918.

What about the “ratio of IC50 for cells with mutant EGFR” value (EGFR Ex19del T790M) of the same compound?
Its value is 0.001513.

What about the “ratio of the IC50 value for cells” value (EGFR E709A) of the same compound?
Its value is 0.3054.

What about the “ratio of the IC50 value for cells” value (EGFR Ex19del L718V) of the same compound?
Its value is 0.0009364.

What about the “ratio of IC50 for cells with mutant EGFR” value (EGFR Ex19del/T790M/L792H) of the same compound?
Its value is 0.0002637.

And the “ratio of the IC50 value for cells” value (EGFR V774M)?
The value was 0.3282.

And the “ratio of IC50 for cells with mutant EGFR” value (EGFR T725M)?
Its value is 0.02572.

What about the “ratio of the IC50 value for cells” value (EGFR G719A/R776C) of the same compound?
The value was 3.055.
